For the experiment, the target named is Mtb Lpd (Mycobacterium tuberculosis (strain ATCC 25618 / H37Rv), UniProt P9WHH9). The format is biochemical.
[1] abbreviates: 30 min preincubation, read-out: LPD IC50 (μM) w/ 30 min preincubation.

Like-named read-outs stand apart in the source and are kept apart here. Some results are limits rather than exact numbers.

As to `Cc1cc(S(=O)(=O)N(C)CC(=O)Nc2ccn3c(C(F)(F)F)ncc3c2)c2n[nH]cc2c1` [Example 130], for the setting “read-out: LPD IC50”, the IC50 was 0.0345 µM.

For the compound `Cc1cc(S(=O)(=O)N(C)CC(=O)Nc2nc3c(s2)CCOC3)c2n[nH]cc2c1` [Example 116], the IC50 (read-out: LPD IC50) came to 0.0771 µM.

With `Cc1cc(S(=O)(=O)N2CC[C@H]2C(=O)NC2CCc3ccccc32)c2[nH]ncc2c1` (stereo partly drawn) [Example 131], where the note is “read-out: LPD IC50”, the IC50 is 2.52 µM.

Consider `C#CCNC(=O)CN(C)S(=O)(=O)c1cc(C)cc2cn[nH]c12` [Example 107], for which the IC50 (read-out: LPD IC50) was 0.047 µM.

Consider `Cc1cc(S(=O)(=O)N(C)CC(=O)Nc2nc3c(s2)NCCC3)c2n[nH]cc2c1` [Example 154, 2-((N,5-dimethyl-1H-indazole)-7-sulfonamido)-N-(4,5,6,7-tetrahydrothiazolo[5,4-b]250yclopro-2-yl)acetamide], for which the IC50 (read-out: LPD IC50) came out at 0.05 µM.

Consider `Cc1cc(S(=O)(=O)N2CC[C@H]2C(=O)N[C@H]2CCCOC2)c2[nH]ncc2c1` [Example 141, (2S)-1-[(5-methyl-1H-indazol-7-yl)sulfonyl]-N-[(3S)-tetrahydropyran-3-yl]azetidine-2-carboxamide], for which the IC50 (read-out: LPD IC50) was found to be 0.811 µM.

For `Cc1cc(S(=O)(=O)N(C)CC(=O)N[C@H]2CCc3ccccc32)c2n[nH]cc2c1` [Example 55], the IC50 (read-out: LPD IC50) was 0.874 µM.

For `Cc1cc(S(=O)(=O)N2CCC(C(=O)Nc3ccc4c(c3)OCCN4C)C2)c2[nH]ncc2c1` (stereo not drawn) [Example 120], the IC50 (read-out: LPD IC50) was determined as 0.0197 µM.

Take `C/C=C/CNC(=O)CN(C)S(=O)(=O)c1cc(C)cc2cc(C#N)[nH]c12` [Example 227]: under setting [1], the IC50 was 0.018 µM.

`Cc1cc(S(=O)(=O)N2CC[C@H]2C(=O)NC2CCCCC2)c2[nH]ncc2c1` [Example 70, (S)—N-cyclohexyl-1-((5-methyl-1H-indazol-7-yl)sulfonyl)azetidine-2-carboxamide]: the IC50 (read-out: LPD IC50) turned out to be 0.279 µM.

`Cc1cc(S(=O)(=O)N(C)CC(=O)Nc2ccn(C)c(=O)c2)c2nn[nH]c2c1` [Example 132, 2-((N,5-dimethyl-1H-benzo[d][1,2,3]triazole)-7-sulfonamido)-N-(1-methyl-2-oxo-1,2-dihydropyridin-4-yl)acetamide]: the IC50 (read-out: LPD IC50) amounted to 0.386 µM.

Take `Cc1cc(S(=O)(=O)N(C)CC(=O)Nc2ccn3nccc3c2)c2[nH]c(C#N)cc2c1` [Example 220]: the IC50 under setting [1] was 0.019 µM.

With `Cc1cc(S(=O)(=O)N(C)CC(=O)NC2CCOCC2)c2n[nH]cc2c1` [Example 65], the IC50 (read-out: LPD IC50) came out at 0.118 µM.

As for `Cc1cc(S(=O)(=O)N(C)CC(=O)Nc2ccc3c(c2)OCCN3C2CCOCC2)c2[nH]ncc2c1` [Example 89], the IC50 (read-out: LPD IC50) was 0.0419 µM.

Take `Cc1cc(S(=O)(=O)N(C)CC(=O)NC2C(=O)Nc3ccccc32)c2n[nH]cc2c1` (stereo not drawn) [Example 77]: the IC50 (read-out: LPD IC50) was 0.803 µM.

As for `Cc1cc(S(=O)(=O)N(C)CC(=O)Nc2nc3ccccc3s2)c2n[nH]cc2c1` [Example 58], the IC50 (read-out: LPD IC50) came to 0.0315 µM.

On to `Cc1cc(S(=O)(=O)N(C)CC(=O)NC2CCCN(C)C2)c2n[nH]cc2c1` (stereo not drawn) [Example 66], for which the IC50 (read-out: LPD IC50) stood at 0.593 µM.

Turning to `Cc1cc(S(=O)(=O)N(C)CC(=O)Nc2ccc3ccccc3n2)c2n[nH]cc2c1` [Example 64], the IC50 (read-out: LPD IC50) is 0.0335 µM.

Turning to `Cc1cc(S(=O)(=O)N(C)CC(=O)Nc2ccn(C)c(=O)c2)c2[nH]c(C)cc2c1` [Example 134], the IC50 (read-out: LPD IC50) is 0.963 µM.

With `CCc1cc(S(=O)(=O)N(C)CC(=O)Nc2ccn(C)c(=O)c2)c2n[nH]cc2c1` [Example 117, 2-((5-ethyl-N-methyl-1H-indazole)-7-sulfonamido)-N-(1-methyl-2-oxo-1,2-dihydropyridin-4-yl)acetamide], the IC50 (read-out: LPD IC50) was 0.05 µM.

Consider `Cc1cc(S(=O)(=O)N(C)CC(=O)Nc2nc3cnccc3s2)c2n[nH]cc2c1` [Example 115], for which, under “read-out: LPD IC50”, the IC50 amounted to 0.0276 µM.

As for `Cc1cc(S(=O)(=O)N2CC[C@H]2C(=O)NC2CCOCC2)c2[nH]ncc2c1` [Example 128], the IC50 (read-out: LPD IC50) was 1.07 µM.

For the compound `COc1ccc(NC(=O)CN(C)S(=O)(=O)c2cc(C)cc3c[nH]nc23)nc1` [Example 60], the IC50 (read-out: LPD IC50) stood at 0.0415 µM.

On to `Cc1cc(S(=O)(=O)N2CCC2C(=O)NCc2ccccc2)c2[nH]ncc2c1` (stereo not drawn) [Example 81], for which the IC50 (read-out: LPD IC50) amounted to 0.62 µM.

With `Cc1cc(S(=O)(=O)N2CC[C@H]2C(=O)Nc2ccc(C#N)c(Cl)c2)c2[nH]ncc2c1` [Example 86], the IC50 (read-out: LPD IC50) is 0.0414 µM.

Take `Cc1cc(S(=O)(=O)N(C)CC(=O)Nc2cc(C)n(C)c(=O)c2)c2[nH]ncc2c1` [Example 17, 2-((N,5-dimethyl-1H-indazole)-7-sulfonamido)-N-(1,6-dimethyl-2-oxo-1,2-dihydropyridin-4-yl)acetamide]: the IC50 (read-out: LPD IC50) stood at 0.052 µM.

As to `Cc1cc(S(=O)(=O)N(C)CC(=O)NC2CCN(C)C(=O)C2)c2n[nH]cc2c1` (stereo not drawn) [Example 68], the IC50 (read-out: LPD IC50) worked out at 0.149 µM.

For `Cc1cc(S(=O)(=O)N(CC(=O)Nc2ccn(C)c(=O)c2)C2COC2)c2[nH]ncc2c1` [Example 38, N-(1-methyl-2-oxo-1,2-dihydropyridin-4-yl)-2-((5-methyl-N-(oxetan-3-yl)-1H-indazole)-7-sulfonamido)acetamide], for the setting “read-out: LPD IC50”, the IC50 was 0.42 µM.

Turning to `Cc1cc(S(=O)(=O)N(C)CC(=O)NCc2cn(C)nn2)c2[nH]ncc2c1` [Example 108], the IC50 (read-out: LPD IC50) worked out at 0.111 µM.

Turning to `Cc1cc(S(=O)(=O)N(C)CC(=O)NCc2ccccc2C)c2[nH]ncc2c1` [Example 109], for the setting “read-out: LPD IC50”, the IC50 was 0.107 µM.

In the case of `Cc1cc(S(=O)(=O)N(C)CC(=O)NC2CCCCC2)c2n[nH]cc2c1` [Example 73], the IC50 (read-out: LPD IC50) came out at 0.0858 µM.

Regarding `Cc1cccc(CNC(=O)CN(C)S(=O)(=O)c2cc(C)cc3c[nH]nc23)c1` [Example 110], the IC50 (read-out: LPD IC50) was found to be 0.041 µM.

On to `Cc1cc(S(=O)(=O)N2CC[C@H]2C(=O)Nc2cc3ccccc3cn2)c2[nH]ncc2c1` [Example 82], for which, for the setting “read-out: LPD IC50”, the IC50 stood at 0.0489 µM.

Consider `Cc1cc(S(=O)(=O)N(C)CC(=O)Nc2ccc3c(c2)CCCO3)c2[nH]c(C#N)cc2c1` [Example 221], for which the IC50 under setting [1] was determined as 0.015 µM.

Regarding `Cc1cc(S(=O)(=O)N2CCC(C(=O)Nc3ccn(C)c(=O)c3)C2)c2[nH]ncc2c1` (stereo not drawn) [Example 213], under “read-out: LPD IC50”, the IC50 came out at 1.92 µM.

In the case of `Cc1cc(S(=O)(=O)N2CC[C@H]2C(=O)NC2COC2)c2[nH]ncc2c1` [Example 80], the IC50 (read-out: LPD IC50) turned out to be 0.285 µM.

On to `Cc1cc(S(=O)(=O)N2CC[C@H]2C(=O)NC2CCCN(C)C2)c2[nH]ncc2c1` (stereo partly drawn) [Example 135-R], for which the IC50 (read-out: LPD IC50) was determined as 2.65 µM.

Consider `CC#CCN(C)C(=O)CN(C)S(=O)(=O)c1cc(C)cc2cc(C#N)[nH]c12` [Example 226], for which the IC50 under setting [1] was 0.368 µM.

As for `Cc1cc(S(=O)(=O)N2CC[C@@H](C(=O)Nc3ccc(N4CCOCC4)c(Cl)c3)C2)c2n[nH]cc2c1` [Example 119], under “read-out: LPD IC50”, the IC50 turned out to be 0.0348 µM.

In the case of `Cc1cc(S(=O)(=O)N2CC[C@H]2C(=O)NC2CCc3ccccc32)c2[nH]ncc2c1` (stereo partly drawn) [Example 138], the IC50 (read-out: LPD IC50) was over 10 µM.

For the compound `Cc1cc(S(=O)(=O)N(C)CC(=O)N[C@@H]2CCc3ccccc32)c2n[nH]cc2c1` [Example 56], for the setting “read-out: LPD IC50”, the IC50 was 0.0426 µM.

Regarding `Cc1cc(S(=O)(=O)N(C)CC(=O)Nc2nc3c(s2)CCN(C)C3)c2n[nH]cc2c1` [Example 137, 2-(N,5-dimethyl-1H-indazole-7-sulfonamido)-N-(5-methyl-4,5,6,7-tetrahydrothiazolo[4,5-c]pyridin-2-yl)acetamide], the IC50 (read-out: LPD IC50) amounted to 0.025 µM.

Consider `CCN(CC(=O)Nc1ccc2c(c1)OCCN2C1COC1)S(=O)(=O)c1cc(C)cc2c[nH]nc12` [Example 155], for which the IC50 (read-out: LPD IC50) is 0.0246 µM.

As to `Cc1cc(S(=O)(=O)N(C)CC(=O)Nc2ccn(C)c(=O)c2)c2[nH][nH]c(=O)c2c1` [Example 133, 2-((N,5-dimethyl-3-oxo-2,3-dihydro-1H-indazole)-7-sulfonamido)-N-(1-methyl-2-oxo-1,2-dihydropyridin-4-yl)acetamide], the IC50 (read-out: LPD IC50) stood at 0.0706 µM.

Regarding `Cc1cc(S(=O)(=O)N(C)CC(=O)NC2CCc3cnccc32)c2n[nH]cc2c1` (stereo not drawn) [Example 114], the IC50 (read-out: LPD IC50) turned out to be 0.0954 µM.

On to `Cc1cc(S(=O)(=O)N(C)CC(=O)Nc2ccc3c(c2)OCCN3C(C)C)c2n[nH]cc2c1` [Example 157], for which the IC50 (read-out: LPD IC50) amounted to 0.014 µM.

With `CN(CC(=O)Nc1ccn(C)c(=O)c1)S(=O)(=O)c1cc(C2(O)CC2)cc2cn[nH]c12` [Example 172, 2-((5-(1-hydroxycyclopropyl)-N-methyl-1H-indazole)-7-sulfonamido)-N-(1-methyl-2-oxo-1,2-dihydropyridin-4-yl)acetamide], where the note is “read-out: LPD IC50”, the IC50 turned out to be 0.654 µM.

For the compound `Cc1cc(S(=O)(=O)N(C)CC(=O)Nc2ccc(N3CCOCC3)c(Cl)c2)c2[nH]ncc2c1` [Example 126], the IC50 came out at 0.015 µM under setting [1] and 0.019 µM (read-out: LPD IC50).

As to `Cc1ccc(CNC(=O)CN(C)S(=O)(=O)c2cc(C)cc3cn[nH]c23)cc1` [Example 111], for the setting “read-out: LPD IC50”, the IC50 is 0.0522 µM.

As for `Cc1cc(S(=O)(=O)N2CC[C@H]2C(=O)NC2CCCN(C)C2)c2[nH]ncc2c1` (stereo partly drawn) [Example 135-S], the IC50 (read-out: LPD IC50) worked out at 5.87 µM.

Take `Cc1cc(S(=O)(=O)N2CC[C@H]2C(=O)Nc2ccn3nccc3c2)c2[nH]ncc2c1` [Example 91]: under “read-out: LPD IC50”, the IC50 came to 0.041 µM.

Take `Cc1cc(S(=O)(=O)N(C)CC(=O)NC2CCCOC2)c2n[nH]cc2c1` (stereo not drawn) [Example 54]: the IC50 (read-out: LPD IC50) came to 0.0906 µM.

For `Cc1cc(S(=O)(=O)N(C)CC(=O)Nc2ccn(C)c(=O)c2)c2[nH]nc(C#N)c2c1` [Example 182, 2-((3-cyano-N,5-dimethyl-1H-indazole)-7-sulfonamido)-N-(1-methyl-2-oxo-1,2-dihydropyridin-4-yl)acetamide], the IC50 (read-out: LPD IC50) is 0.724 µM.

Take `CCCc1cc(S(=O)(=O)N(C)CC(=O)Nc2ccn(C)c(=O)c2)c2[nH]ncc2c1` [Example 118]: the IC50 (read-out: LPD IC50) was found to be 0.0702 µM.

Consider `Cc1cc(S(=O)(=O)N(C)CC(=O)NC2C(=O)N(C)c3ccccc32)c2n[nH]cc2c1` (stereo not drawn) [Example 79], for which, under “read-out: LPD IC50”, the IC50 was found to be 0.779 µM.

With `Cc1cc(S(=O)(=O)N(C)CC(=O)Nc2ccn3nc(C)cc3c2)c2[nH]ncc2c1` [Example 104], the IC50 (read-out: LPD IC50) came out at 0.157 µM.

Turning to `Cc1cc(S(=O)(=O)N(C)CC(=O)NC2CCN(C)CC2)c2n[nH]cc2c1` [Example 53], the IC50 (read-out: LPD IC50) is 0.963 µM.

As to `Cc1cc(S(=O)(=O)N(C)CC(=O)Nc2cc3ccccc3cn2)c2n[nH]cc2c1` [Example 67], the IC50 (read-out: LPD IC50) stood at 0.0372 µM.

Consider `Cc1cc(S(=O)(=O)N(C)CC(=O)N[C@@H]2CCCOC2)c2[nH]ncc2c1` [Example 113], for which the IC50 (read-out: LPD IC50) was 0.184 µM.

(Values after patent publication US20240132480A1, “INHIBITORS OF MYCOBACTERIUM TUBERCULOSIS LIPOAMIDE DEHYDROGENASE” (Cornell University, priority 2021, published 2024).)
